Key:
[1] = biological target: Phosphatidylinositol 5-phosphate 4-kinase type-2 beta (Homo sapiens) (UniProt P78356); assay: Binding affinity to wild-type human full length PIP5K2B (M1 to T416 residues) expressed in bacterial expression system assessed as residual binding level at 10 uM by Kinomescan method relative to control
[2] = biological target: Serine/threonine-protein kinase Nek9 (Homo sapiens) (UniProt Q8TD19); assay: Binding affinity to wild-type human partial length NEK9 (P32 to R328 residues) expressed in bacterial expression system assessed as residual binding level at 10 uM by Kinomescan method relative to control
[3] = biological target: Mitogen-activated protein kinase kinase kinase kinase 5 (Homo sapiens) (UniProt Q9Y4K4); assay: Binding affinity to wild-type human partial length MAP4K5 (M1 to P297 residues) expressed in bacterial expression system assessed as residual binding level at 10 uM by Kinomescan method relative to control
[4] = biological target: Serine/threonine-protein kinase Sgk3 (Homo sapiens) (UniProt Q96BR1); assay: Binding affinity to wild-type human partial length SGK3 (M119 to L496 residues) expressed in mammalian expression system assessed as residual binding level at 10 uM by Kinomescan method relative to control
[5] = biological target: Cyclin-dependent kinase 14 (Homo sapiens) (UniProt O94921); assay: Binding affinity to wild-type human full length PFTK1 (M1 to H451 residues) expressed in bacterial expression system assessed as residual binding level at 10 uM by Kinomescan method relative to control
[6] = biological target: Serine/threonine-protein kinase pim-1 (Homo sapiens) (UniProt P11309); assay: Binding affinity to wild-type human partial length PIM1 (A15 to K313 residues) expressed in bacterial expression system assessed as residual binding level at 10 uM by Kinomescan method relative to control
[7] = system: Tyrosine-protein kinase ABL1 (Homo sapiens), P00519 [Q252H]; assay: Binding affinity to human phosphorylated ABL1 Q252H mutant expressed in mammalian expression system assessed as residual binding level at 10 uM by Kinomescan method relative to control
[8] = biological target: Tyrosine-protein kinase JAK2 (Homo sapiens) (UniProt O60674); assay: Binding affinity to wild-type human partial length JAK2 JH1 catalytic domain (A829 to G1132 residues) expressed in mammalian expression system assessed as residual binding level at 10 uM by Kinomescan method relative to control
[9] = biological target: Casein kinase II subunit alpha' (Homo sapiens) (UniProt P19784); assay: Binding affinity to wild-type human full length CSNK2A2 (M1 to R350 residues) expressed in mammalian expression system assessed as residual binding level at 10 uM by Kinomescan method relative to control
[10] = biological target: Ribosomal protein S6 kinase alpha-2 (Homo sapiens) (UniProt Q15349); assay: Binding affinity to wild-type human partial length N-terminal RSK3 kinase domain 1 (M1 to Q385 residues) expressed in bacterial expression system assessed as residual binding level at 10 uM by Kinomescan method relative to control
[11] = biological target: Serine/threonine-protein kinase ULK2 (Homo sapiens) (UniProt Q8IYT8); assay: Binding affinity to wild-type human partial length ULK2 (M1 to S301 residues) expressed in mammalian expression system assessed as residual binding level at 10 uM by Kinomescan method relative to control
[12] = biological target: Serine/threonine-protein kinase OSR1 (Homo sapiens) (UniProt O95747); assay: Binding affinity to wild-type human full length OSR1 (M1 to S527 residues) expressed in mammalian expression system assessed as residual binding level at 10 uM by Kinomescan method relative to control
[13] = biological target: Microtubule-associated serine/threonine-protein kinase 1 (Homo sapiens) (UniProt Q9Y2H9); assay: Binding affinity to wild-type human partial length MAST1 (S346 to V730 residues) expressed in mammalian expression system assessed as residual binding level at 10 uM by Kinomescan method relative to control
[14] = biological target: Tyrosine-protein kinase Fer (Homo sapiens) (UniProt P16591); assay: Binding affinity to wild-type human partial length FER (S542 to T822 residues) expressed in bacterial expression system assessed as residual binding level at 10 uM by Kinomescan method relative to control
[15] = biological target: BDNF/NT-3 growth factors receptor (Homo sapiens) (UniProt Q16620); assay: Binding affinity to wild-type human partial length TRKB (Q547 to G838 residues) expressed in mammalian expression system assessed as residual binding level at 10 uM by Kinomescan method relative to control
[16] = biological target: Mitogen-activated protein kinase 3 (Homo sapiens) (UniProt P27361); assay: Binding affinity to wild-type human full length ERK1 (M1 to P379 residues) expressed in bacterial expression system assessed as residual binding level at 10 uM by Kinomescan method relative to control
[17] = biological target: Serine/threonine-protein kinase MRCK gamma (Homo sapiens) (UniProt Q6DT37); assay: Binding affinity to wild-type human partial length DMPK2 (S46 to S408 residues) expressed in bacterial expression system assessed as residual binding level at 10 uM by Kinomescan method relative to control
[18] = biological target: Interleukin-1 receptor-associated kinase 1 (Homo sapiens) (UniProt P51617); assay: Binding affinity to wild-type human partial length IRAK1 (R194 to S712 residues) expressed in mammalian expression system assessed as residual binding level at 10 uM by Kinomescan method relative to control
[19] = biological target: Inhibitor of nuclear factor kappa-B kinase subunit epsilon (Homo sapiens) (UniProt Q14164); assay: Binding affinity to wild-type human full length IKK-epsilon (M1 to V716 residues) expressed in mammalian expression system assessed as residual binding level at 10 uM by Kinomescan method relative to control
[20] = biological target: Wee1-like protein kinase 2 (Homo sapiens) (UniProt P0C1S8); assay: Binding affinity to wild-type human partial length WEE2 (M204 to K492 residues) expressed in bacterial expression system assessed as residual binding level at 10 uM by Kinomescan method relative to control
[21] = biological target: Serine/threonine-protein kinase SBK1 (Homo sapiens) (UniProt Q52WX2); assay: Binding affinity to wild-type human partial length SBK1 (P23 to P348 residues) expressed in mammalian expression system assessed as residual binding level at 10 uM by Kinomescan method relative to control
[22] = biological target: Megakaryocyte-associated tyrosine-protein kinase (Homo sapiens) (UniProt P42679); assay: Binding affinity to wild-type human full length CTK (M43 to P508 residues) expressed in mammalian expression system assessed as residual binding level at 10 uM by Kinomescan method relative to control
[23] = biological target: Mitogen-activated protein kinase 15 (Homo sapiens) (UniProt Q8TD08); assay: Binding affinity to wild-type human partial length ERK8 (M1 to P437 residues) expressed in bacterial expression system assessed as residual binding level at 10 uM by Kinomescan method relative to control
[24] = biological target: STE20/SPS1-related proline-alanine-rich protein kinase (Homo sapiens) (UniProt Q9UEW8); assay: Binding affinity to wild-type human partial length STK39 (P43 to I357 residues) expressed in mammalian expression system assessed as residual binding level at 10 uM by Kinomescan method relative to control

Question: How did the Activity [1] turn out when `O=C(Nc1cc(-c2cn(CCNc3c4c(nc5ccccc35)CCCC4)nn2)ccn1)Nc1cccc2c1C1CCCCN1C2=O` (racemic) was run?
Answer: Its Activity is 16%.

Question: What about the Activity [2] of the same molecule?
Answer: Its Activity is 62%.

Question: And the Activity [3]?
Answer: Its Activity is 25%.

Question: What about the Activity [4] of the same molecule?
Answer: Its Activity is 1.3%.

Question: And the Activity [5]?
Answer: The Activity was 28%.

Question: What about the Activity [6] of the same molecule?
Answer: The Activity was 25%.

Question: What about the Activity [7] of the same molecule?
Answer: The Activity was 1.4%.

Question: And the Activity [8]?
Answer: Its Activity is 21%.

Question: What about the Activity [9] of the same molecule?
Answer: The Activity was 5%.

Question: And the Activity [10]?
Answer: The Activity was 7.1%.

Question: And the Activity [11]?
Answer: The Activity was 16%.

Question: What about the Activity [12] of the same molecule?
Answer: The Activity was 100%.

Question: What about the Activity [13] of the same molecule?
Answer: Its Activity is 100%.

Question: And the Activity [14]?
Answer: Its Activity is 100%.

Question: What about the Activity [15] of the same molecule?
Answer: The Activity was 17%.

Question: What about the Activity [16] of the same molecule?
Answer: The Activity was 57%.

Question: And the Activity [17]?
Answer: The Activity was 100%.

Question: And the Activity [18]?
Answer: Its Activity is 8.7%.

Question: What about the Activity [19] of the same molecule?
Answer: The Activity was 52%.

Question: And the Activity [20]?
Answer: The Activity was 100%.

Question: And the Activity [21]?
Answer: The Activity was 30%.

Question: What about the Activity [22] of the same molecule?
Answer: The Activity was 100%.

Question: What about the Activity [23] of the same molecule?
Answer: Its Activity is 0.05%.

Question: What about the Activity [24] of the same molecule?
Answer: The Activity was 100%.

From ChEMBL document CHEMBL4390652, “Design, biological evaluation and X-ray crystallography of nanomolar multifunctional ligands targeting simultaneously acetylcholinesterase and glycogen synthase kinase-3” (Eur J Med Chem, 2019)
